Measurements: patent US4396613A, “23-Ester derivatives of DMT and method of using same” (Eli Lilly and Company, priority 1981, dated 1983)
In brackets after ≈: the same amount, converted by molar mass.

How the values were obtained:
Format in all cases: cell-based
[1] = tested on: Pasteurella multocida 60A; test: conventional broth-dilution microtiter test (MIC); conditions: avian isolate, unit assumed
Experimental: (§1) The MIC's in Table II were determined by standard agar-dilution assays. The MIC's in Table III were obtained using a conventional broth-dilution microtiter test.

Streptococcus sp. 80 = test: conventional broth-dilution microtiter test (MIC); conditions: unit assumed
Experimental: as §1

[2] = tested on: Pasteurella multocida 17E; test: conventional broth-dilution microtiter test (MIC); conditions: bovine isolate, unit assumed
Experimental: as §1

Mycoplasma gallisepticum = test: conventional broth-dilution microtiter test (MIC); conditions: unit assumed
Experimental: as §1

Mycoplasma hyorhinis = test: conventional broth-dilution microtiter test (MIC); conditions: unit assumed
Experimental: as §1

Mycoplasma synoviae = test: conventional broth-dilution microtiter test (MIC); conditions: unit assumed
Experimental: as §1

[3] = tested on: Streptococcus pneumoniae Park I; conditions: agar dilution, unit assumed
Experimental: as §1

[4] = tested on: Staphylococcus aureus X400; test: standard agar-dilution assay (MIC); conditions: Staphylococcus aureus X400, methicillin-resistant strain, unit assumed
Experimental: as §1
^c Methicillinresistant-strain

[5] = tested on: Staphylococcus aureus V41; test: standard agar-dilution assay (MIC); conditions: Staphylococcus aureus V41, penicillin-resistant strain, unit assumed
Experimental: as §1
^b Penicillinresistant strain

[6] = tested on: Staphylococcus aureus X1.1; test: standard agar-dilution assay (MIC); conditions: unit assumed
Experimental: as §1

[7] = tested on: Streptococcus Group D X66; test: standard agar-dilution assay (MIC); conditions: unit assumed
Experimental: as §1

[8] = tested on: Staphylococcus epidermidis EPI1; test: standard agar-dilution assay (MIC); conditions: unit assumed
Experimental: as §1

[9] = tested on: Staphylococcus aureus S13E; test: standard agar-dilution assay (MIC); conditions: unit assumed
Experimental: as §1

Streptococcus Group 9960 = test: standard agar-dilution assay (MIC); conditions: unit assumed
Experimental: as §1

[10] = tested on: Staphylococcus epidermidis EPI2; test: standard agar-dilution assay (MIC); conditions: unit assumed
Experimental: as §1

[11] = tested on: Haemophilus influenzae R252; test: standard agar-dilution assay (MIC); conditions: Haemophilus influenzae R252, ampicillin-resistant strain, unit assumed
Experimental: as §1

[12] = tested on: Haemophilus influenzae Holt; test: standard agar-dilution assay (MIC); conditions: ampicillin-sensitive strain, unit assumed
Experimental: as §1

[13] = tested on: Streptococcus pyogenes C203; test: standard agar-dilution assay (MIC); conditions: unit assumed
Experimental: as §1

Staphylococcus aureus = test: conventional broth-dilution microtiter test (MIC); conditions: unit assumed
Experimental: as §1

| Compound | MIC [1] [µg/mL] | MIC (Streptococcus sp. 80) [µg/mL] | MIC [2] [µg/mL] | MIC (Mycoplasma gallisepticum) [µg/mL] | MIC (Mycoplasma hyorhinis) [µg/mL] | MIC (Mycoplasma synoviae) [µg/mL] | MIC [3] [µg/mL] | MIC [4] [µg/mL] | MIC [5] [µg/mL] | MIC [6] [µg/mL] | MIC [7] [µg/mL] | MIC [8] [µg/mL] | MIC [9] [µg/mL] | MIC (Streptococcus Group 9960) [µg/mL] | MIC [10] [µg/mL] | MIC [11] [µg/mL] | MIC [12] [µg/mL] | MIC [13] [µg/mL] | MIC (Staphylococcus aureus) [µg/mL] |
| --- | --- | --- | --- | --- | --- | --- | --- | --- | --- | --- | --- | --- | --- | --- | --- | --- | --- | --- | --- |
| CCC(=O)OCC1C=C(C)C=CC(=O)C(C)CC(CC=O)C(OC2OC(C)C(OC3CC(C)(O)C(O)C(C)O3)C(N(C)C)C2OC(C)=O)C(C)C(O)CC(=O)OC1CC (centres unmarked) [Compound 5, 2'-O-Acetyl-23-O-propionyl DMT] | 12.5 (≈ 14.9 µM) | ≤ 0.78 | 6.25 (≈ 7.44 µM) | ≤ 0.024 | 1.56 (≈ 1.86 µM) | 0.097 (≈ 0.115 µM) | 0.5 (≈ 0.595 µM) | 1 (≈ 1.19 µM) | 0.5 (≈ 0.595 µM) | 0.5 (≈ 0.595 µM) | 1 (≈ 1.19 µM) | 1 (≈ 1.19 µM) | 1 (≈ 1.19 µM) | 1 (≈ 1.19 µM) | 1 (≈ 1.19 µM) | 32 (≈ 38.1 µM) | 16 (≈ 19 µM) | 0.5 (≈ 0.595 µM) | – |
| CCC(=O)OC1C(OC2C(CC=O)CC(C)C(=O)C=CC(C)=CC(COC(C)=O)C(CC)OC(=O)CC(O)C2C)OC(C)C(OC2CC(C)(O)C(O)C(C)O2)C1N(C)C (centres unmarked) [Compound 6, 23-O-Acetyl-2'-O-propionyl-DMT] | 12.5 (≈ 14.9 µM) | 0.39 (≈ 0.464 µM) | 6.25 (≈ 7.44 µM) | 0.39 (≈ 0.464 µM) | 0.78 (≈ 0.929 µM) | 0.195 (≈ 0.232 µM) | 0.125 (≈ 0.149 µM) | 2 (≈ 2.38 µM) | 0.5 (≈ 0.595 µM) | 0.5 (≈ 0.595 µM) | 1 (≈ 1.19 µM) | 1 (≈ 1.19 µM) | 1 (≈ 1.19 µM) | 1 (≈ 1.19 µM) | 1 (≈ 1.19 µM) | 16 (≈ 19 µM) | 16 (≈ 19 µM) | 0.5 (≈ 0.595 µM) | 0.78 (≈ 0.929 µM) |
| CCCCCCCC(=O)OCC1C=C(C)C=CC(=O)C(C)CC(CC=O)C(OC2OC(C)C(OC3CC(C)(O)C(O)C(C)O3)C(N(C)C)C2OC(C)=O)C(C)C(O)CC(=O)OC1CC (centres unmarked) [Compound 7] | > 50 | 1.56 (≈ 1.71 µM) | > 50 | 1.56 (≈ 1.71 µM) | 6.25 (≈ 6.87 µM) | 12.5 (≈ 13.7 µM) | 0.5 (≈ 0.549 µM) | 4 (≈ 4.39 µM) | 2 (≈ 2.2 µM) | 2 (≈ 2.2 µM) | 2 (≈ 2.2 µM) | 2 (≈ 2.2 µM) | 2 (≈ 2.2 µM) | 2 (≈ 2.2 µM) | 4 (≈ 4.39 µM) | – | – | 0.5 (≈ 0.549 µM) | 1.56 (≈ 1.71 µM) |
| CCC1OC(=O)CC(O)C(C)C(OC2OC(C)C(OC3CC(C)(O)C(O)C(C)O3)C(N(C)C)C2OC(C)=O)C(CC=O)CC(C)C(=O)C=CC(C)=CC1COC(=O)C(C)(C)C (centres unmarked) [Compound 8] | 12.5 (≈ 14.4 µM) | > 0.78 | 12.5 (≈ 14.4 µM) | 0.39 (≈ 0.449 µM) | 3.12 (≈ 3.59 µM) | 0.39 (≈ 0.449 µM) | 0.06 (≈ 0.0691 µM) | 1 (≈ 1.15 µM) | 0.5 (≈ 0.576 µM) | 0.5 (≈ 0.576 µM) | 0.5 (≈ 0.576 µM) | 0.5 (≈ 0.576 µM) | 0.5 (≈ 0.576 µM) | 0.5 (≈ 0.576 µM) | 1 (≈ 1.15 µM) | 4 (≈ 4.61 µM) | 16 (≈ 18.4 µM) | 0.25 (≈ 0.288 µM) | 3.12 (≈ 3.59 µM) |
| CCC1OC(=O)CC(O)C(C)C(OC2OC(C)C(OC3CC(C)(O)C(O)C(C)O3)C(N(C)C)C2O)C(CC=O)CC(C)C(=O)C=CC(C)=CC1COC(=O)Cc1ccccc1 (centres unmarked) [Compound 10, 23-O-Phenylacetyl-DMT] | 3.12 (≈ 3.63 µM) | 0.097 (≈ 0.113 µM) | 1.56 (≈ 1.81 µM) | ≤ 0.048 | 1.56 (≈ 1.81 µM) | ≤ 0.048 | 0.03 (≈ 0.0349 µM) | 0.5 (≈ 0.581 µM) | 0.5 (≈ 0.581 µM) | 0.25 (≈ 0.291 µM) | 0.5 (≈ 0.581 µM) | 0.5 (≈ 0.581 µM) | 0.25 (≈ 0.291 µM) | 0.25 (≈ 0.291 µM) | 0.5 (≈ 0.581 µM) | 2 (≈ 2.33 µM) | 2 (≈ 2.33 µM) | 0.125 (≈ 0.145 µM) | 0.78 (≈ 0.907 µM) |
| CCC1OC(=O)CC(O)C(C)C(OC2OC(C)C(OC3CC(C)(O)C(O)C(C)O3)C(N(C)C)C2OC(C)=O)C(CC=O)CC(C)C(=O)C=CC(C)=CC1COC(=O)C=Cc1ccccc1 (centres unmarked) [Compound 11] | > 50 | 0.78 (≈ 0.853 µM) | 12.5 (≈ 13.7 µM) | 0.39 (≈ 0.427 µM) | 6.25 (≈ 6.84 µM) | 3.12 (≈ 3.41 µM) | 0.25 (≈ 0.273 µM) | 2 (≈ 2.19 µM) | 0.5 (≈ 0.547 µM) | 1 (≈ 1.09 µM) | 2 (≈ 2.19 µM) | 1 (≈ 1.09 µM) | 1 (≈ 1.09 µM) | 2 (≈ 2.19 µM) | 4 (≈ 4.38 µM) | 128 (≈ 140 µM) | 128 (≈ 140 µM) | 1 (≈ 1.09 µM) | 1.56 (≈ 1.71 µM) |
| CCC1OC(=O)CC(O)C(C)C(OC2OC(C)C(OC3CC(C)(O)C(O)C(C)O3)C(N(C)C)C2OC(C)=O)C(CC=O)CC(C)C(=O)C=CC(C)=CC1COC(=O)CCc1ccccc1 (centres unmarked) [Compound 13] | 12.5 (≈ 13.6 µM) | ≤ 0.048 | 1.56 (≈ 1.7 µM) | ≤ 0.048 | 3.12 (≈ 3.41 µM) | – | 0.015 (≈ 0.0164 µM) | 1 (≈ 1.09 µM) | 1 (≈ 1.09 µM) | 0.25 (≈ 0.273 µM) | 0.5 (≈ 0.546 µM) | 1 (≈ 1.09 µM) | 0.5 (≈ 0.546 µM) | 0.5 (≈ 0.546 µM) | 1 (≈ 1.09 µM) | 2 (≈ 2.18 µM) | 2 (≈ 2.18 µM) | 0.25 (≈ 0.273 µM) | 0.78 (≈ 0.851 µM) |
| CCC1OC(=O)CC(O)C(C)C(OC2OC(C)C(OC3CC(C)(O)C(O)C(C)O3)C(N(C)C)C2OC(C)=O)C(CC=O)CC(C)C(=O)C=CC(C)=CC1COC(=O)C(Cl)(Cl)Cl (centres unmarked) [Compound 16] | 12.5 (≈ 13.5 µM) | 0.39 (≈ 0.42 µM) | 6.25 (≈ 6.73 µM) | 0.39 (≈ 0.42 µM) | 3.12 (≈ 3.36 µM) | – | 0.03 (≈ 0.0323 µM) | 4 (≈ 4.3 µM) | 2 (≈ 2.15 µM) | 1 (≈ 1.08 µM) | 1 (≈ 1.08 µM) | 1 (≈ 1.08 µM) | 1 (≈ 1.08 µM) | 1 (≈ 1.08 µM) | 4 (≈ 4.3 µM) | 2 (≈ 2.15 µM) | 2 (≈ 2.15 µM) | 0.5 (≈ 0.538 µM) | 1.56 (≈ 1.68 µM) |
| CCC1OC(=O)CC(O)C(C)C(OC2OC(C)C(OC3CC(C)(O)C(O)C(C)O3)C(N(C)C)C2OC(=O)Cc2ccccc2)C(CC=O)CC(C)C(=O)C=CC(C)=CC1COC(=O)Cc1ccccc1 (centres unmarked) [Compound 17] | 25 (≈ 25.6 µM) | 0.78 (≈ 0.797 µM) | 6.25 (≈ 6.39 µM) | 0.78 (≈ 0.797 µM) | 6.25 (≈ 6.39 µM) | 1.56 (≈ 1.59 µM) | 0.125 (≈ 0.128 µM) | 2 (≈ 2.04 µM) | 1 (≈ 1.02 µM) | 1 (≈ 1.02 µM) | 1 (≈ 1.02 µM) | 1 (≈ 1.02 µM) | 1 (≈ 1.02 µM) | 1 (≈ 1.02 µM) | 1 (≈ 1.02 µM) | > 128 | > 128 | 0.5 (≈ 0.511 µM) | 0.78 (≈ 0.797 µM) |
| CCC1OC(=O)CC(O)C(C)C(OC2OC(C)C(OC3CC(C)(O)C(O)C(C)O3)C(N(C)C)C2OC(C)=O)C(CC=O)CC(C)C(=O)C=CC(C)=CC1COC(=O)CCCCc1ccccc1 (centres unmarked) [Compound 18] | > 50 | 0.78 (≈ 0.826 µM) | 50 (≈ 53 µM) | < 0.05 | 12.5 (≈ 13.2 µM) | 6.25 (≈ 6.62 µM) | 0.125 (≈ 0.132 µM) | 2 (≈ 2.12 µM) | 2 (≈ 2.12 µM) | 1 (≈ 1.06 µM) | 2 (≈ 2.12 µM) | 1 (≈ 1.06 µM) | 1 (≈ 1.06 µM) | 1 (≈ 1.06 µM) | 2 (≈ 2.12 µM) | > 128 | > 128 | 0.5 (≈ 0.53 µM) | 1.56 (≈ 1.65 µM) |
| CCC1OC(=O)CC(O)C(C)C(OC2OC(C)C(OC3CC(C)(O)C(O)C(C)O3)C(N(C)C)C2O)C(CC=O)CC(C)C(=O)C=CC(C)=CC1COC(=O)NCCCO (centres unmarked) [Compound 26] | 12.5 (≈ 14.8 µM) | 0.39 (≈ 0.463 µM) | 6.25 (≈ 7.41 µM) | 0.78 (≈ 0.925 µM) | 6.25 (≈ 7.41 µM) | 0.39 (≈ 0.463 µM) | 0.125 (≈ 0.148 µM) | 4 (≈ 4.74 µM) | 2 (≈ 2.37 µM) | 1 (≈ 1.19 µM) | 2 (≈ 2.37 µM) | 1 (≈ 1.19 µM) | 4 (≈ 4.74 µM) | 2 (≈ 2.37 µM) | 2 (≈ 2.37 µM) | – | 16 (≈ 19 µM) | 0.25 (≈ 0.297 µM) | 1.56 (≈ 1.85 µM) |
